In patent US11814412B2, “Artificial proteins and compositions and methods thereof” (The Trustees of the University of Pennsylvania, priority 2015, dated 2023):

Molecular target: 3M, mammalian maquette MR reporter (de novo heme-binding maquette protein)
Conditions: read-out: Kd (heme-binding affinity), current (preliminary) 3M before directed evolution

C=CC1=C(C)c2cc3[nH]c(cc4nc(cc5[nH]c(cc1n2)c(C)c5CCC(=O)O)C(CCC(=O)O)=C4C)c(C)c3C=C.[Fe] [heme]
Kd: ~1000 nM
